According to PMC4640567, “Cinnamic Acid Bornyl Ester Derivatives from Valeriana wallichii Exhibit Antileishmanial In Vivo Activity in Leishmania major-Infected BALB/c Mice” (PLoS ONE, 2015):
Where “and” joins values, the source holds several entries; their conditions need not be identical. Equal values may be shown once.

Tests used:
L. major promastigotes [1] = test: Annexin V / propidium iodide flow cytometry, cell death phenotype; assay type: cell-based, Leishmania major; settings: 100 μM
Method: (§1) L. major parasites harvested from blood agar cultures were washed twice with Dulbecco’s phosphate-buffered saline (DPBS; Invitrogen, Darmstadt, Germany) and centrifuged at 3.000 × g for 10 min. The pellet was suspended in RPMI 1640 medium at a final concentration of 1 × 10^8 cells/ml. Cells were treated with 1% DMSO, 122.7 μM miltefosine (1-hexadecylphorylcholine; apoptosis inducer), or 100 μM of the tested compounds 1 and 2 in a final volume of 200 μl in 96 well plates. Samples were incubated at 27°C in 5% CO2 for several time points between 30 min and 24 h. Transmitted light microscopic, transmission electron microscopic (TEM), and flow cytometric techniques were used to find phenotypic patterns caused by the treatment with the tested compounds.
The loss of membrane integrity and translocation of phosphatidylserine (PS) to the outside of the cellular membrane can be determined by annexin V (AV) and propidium iodide (PI) staining. Double staining with AV-fluorescein isothiocyanate (FITC) and PI during flow cytometry analysis leads to discrimination between four populations: double negatives or alive cells (AV^-/PI^-), double positive or late necrotic/late apoptotic cells (AV^+/PI^+), PI-positive and AV-negative or early necrotic cells (AV^-/PI^+), and PI-negative and AV-positive or early apoptotic cells (AV^+/PI^-).
Parasites were harvested after incubation for 6 h, 10 h, and 24 h in the presence of compounds 1, 2 and miltefosine (Cayman Chemical Company, MI, USA), respectively, the latter serving as positive control for the induction of apoptotic cell death. DMSO was used as solvent control. Cell staining was performed using an AV-FITC Apoptosis detection kit (Sigma-Aldrich, Saint Louis, MO, USA). Cells were harvested, washed and suspended in 500 μL of binding buffer, 5 μL of AV-FITC and 10 μl of PI. The cells were incubated for 10 min in the dark at RT. Finally, stained samples were immediately analyzed by flow cytometry using MACSQuant analyzer or a flow cytometer (Becton Dickinson, San José, CA, USA).

L. major = test: In vivo antileishmanial activity in L. major-infected BALB/c mice
Method: Female BALB/c mice (11 per group; three groups in total) were infected with 2 × 10^5 L. major promastigotes in 30 μL phosphate-buffered saline (PBS) into the right hind footpad under isoflurane inhalation anaesthesia using the UniVet Porta system (Groppler, Deggendorf, Germany). The clinical manifestation of L. major infection was monitored twice a week by determination of the body weight (g) and footpad size (mm) of the infected (iFP) and the non-infected footpad (niFP) serving as negative control. The footpad swelling describes the difference in mm between the iFP and niFP of individual mice. Three weeks post infection (p.i.) the mice were randomly divided into three groups of 11 for different treatment regimens. On day 21, 25, and 28 p.i. the respective groups were either left untreated, treated intraperitoneally (i.p.) with 100 μl of solvent (infected, 50% DMSO/PBS) or 100 μl 50 mg/kg/day of compound 2 in 50% DMSO/PBS. This high dose of compound 2 was chosen to identify its antileishmanial in vivo efficacy in L. major-infected BALB/c mice. The close monitoring of body weight and footpad swelling was continued until the end of experiment. On day 35 p.i. mice were sacrificed by CO2 inhalation and single cell suspensions from the iFP, draining popliteal lymph nodes (pLN) and spleens were obtained. The parasite burden was determined by limiting dilution assays as described previously. It was not necessary to apply any analgesics or anaesthetics during the animal trials.

L. major promastigotes [2] = test: Transmission electron microscopy, mitochondrial swelling; assay type: cell-based, Leishmania major; settings: 100 μM, 2 h
Method: as §1
L. major promastigotes were incubated for 2 h in the presence of DMSO, 100 μM of compound 1 and compound 2, respectively. After the incubation period, the parasites were harvested, contrasted and embedded following the procedure described previously. Ultrathin sections were mounted on 300-mesh grids, stained with uranyl acetate and lead citrate, and analyzed with an EM 10 transmission electron microscope (Carl Zeiss AG, Oberkochen, Germany). To describe morphological changes in a statistical manner, six photographs with approximately 50 cells were taken and the percentage of cells with swollen mitochondria per treatment was determined.

[3] = 50 mg/kg/day i.p. days 21, 25, 28, day 35 p.i.

| SMILES | LL: live cells (AV-/PI-) (L. major promastigotes [1]; 6 h) [%] | LR: early apoptotic cells (AV+/PI-) (L. major promastigotes [1]; 6 h) [%] | UL: early necrotic cells (AV-/PI+) (L. major promastigotes [1]; 6 h) [%] | UR: necrotic/late apoptotic cells (AV+/PI+) (L. major promastigotes [1]; 6 h) [%] | LL: live cells (AV-/PI-) (L. major promastigotes [1]; 10 h) [%] | LR: early apoptotic cells (AV+/PI-) (L. major promastigotes [1]; 10 h) [%] | UL: early necrotic cells (AV-/PI+) (L. major promastigotes [1]; 10 h) [%] | UR: necrotic/late apoptotic cells (AV+/PI+) (L. major promastigotes [1]; 10 h) [%] | Induced cell death phenotype (per definition) (L. major promastigotes [1]; 24 h) | LL: live cells (AV-/PI-) (L. major promastigotes [1]; 24 h) | LR: early apoptotic cells (AV+/PI-) (L. major promastigotes [1]; 24 h) | UL: early necrotic cells (AV-/PI+) (L. major promastigotes [1]; 24 h) | UR: necrotic/late apoptotic cells (AV+/PI+) (L. major promastigotes [1]; 24 h) | Side effects in vivo (L. major; 50 mg/kg/day i.p. days 21, 25, 28) | Parasite burden in the spleen (LDA) (L. major; [3]) | Reduction of parasite burden within the infected footpads (LDA) (L. major; [3]) | Reduction of parasite burden within the popliteal lymph nodes (LDA) (L. major; [3]) | Body weight of infected mice (L. major; 50 mg/kg/day i.p. on days 21, 25, 28 p.i., during the treatment regimen) | Footpad swelling (difference between infected and non-infected footpad) (L. major; 50 mg/kg/day i.p. on days 21, 25, 28 p.i., vs untreated or solvent control-treated mice) | Counted parasites with mitochondrial swelling (TEM) (L. major promastigotes [2]) [%] |
| --- | --- | --- | --- | --- | --- | --- | --- | --- | --- | --- | --- | --- | --- | --- | --- | --- | --- | --- | --- | --- |
| CC1(C)C2CCC1(C)C(OC(=O)CCc1ccccc1)C2 (single isomer, unassigned; (-)) [Compound 2, (-)-bornyl 3-phenylpropionate] | 54.4 | 8.8 | 10.7 | 26.1 | 47.2 | 9.3 | 16.8 | 26.7 | miltefosine-like cell death | 21% and 20.6% | 19% and 18.5% | 24% and 24.2% | 37% and 36.7% | did not have any strong side effects | only numerically reduced | ~ 100 fold | ~ 10.000 fold | not affected | reduced footpad swelling | 36 |
| CC1(C)C2CCC1(C)C(OC(=O)C=Cc1ccccc1)C2 (single isomer, unassigned; (-)) [Compound 1, (-)-Bornyl cinnamate] | 71.3 | 3.7 | 12.3 | 12.7 | 69.3 | 4.2 | 12.9 | 13.6 | necrotic cell death phenotype | 33% and 33.2% | 4.1% | 30% and 29.8% | 33% and 32.9% | – | – | – | – | – | – | 39 |
